In PubChem BioAssay AID2060504 (Molecular Pharmacology Branch, DTP, NCI, 2025):

Tested on: 636577-100-R-J1-PDC complex spheroid viability
Assay: Anticancer human tumor 636577-100-R-J1-PDC patient-derived endometrial adenocarcinoma cell line growth inhibition [GQUAD]
Conditions: for IC50: curve of first compound; for viability, T/C: stronger effect = lower value
Source text: DNA G-quadruplex Stabilizer Agents in Combinations in Complex Spheroids
A high-throughput screen of multi-cell type tumor spheroids was designed to identify active combinations of DNA G-quadruplex stabilizer agents and targeted small molecules. Complex spheroids include a stromal component modeled by human endothelial cells (HUVEC) and fibroblasts modeled by human mesenchymal stem cells (MSCs). The concentration ranges selected for each drug and investigational agent were based upon clinically achievable concentrations if the clinical Cmax of the agent was known.
Compounds. The drugs and investigational agents: pidnarulex (CX-5461; NSC782164), APTO-253 (NSC789042), BRACO-19 (NSC847499), peposertib (NSC802822), ceralasertib (NSC780249), elimusertib (NSC800525), camonsertib (NSC841442), AZD-1390 (NSC803789), olaparib (NSC753686), talazoparib (NSC767125), ART-558 (NSC835418), sotorasib (NSC818433), MRTX-1133 (NSC836407), SN-38 (NSC673596), topotecan (NSC609699), etoposide (NSC141540), doxorubicin (NSC123127), gemcitabine (NSC613327), 5-fluorouracil (NSC19893), paclitaxel (NSC125973), vemurafenib (NSC761431), panobinostat (NSC761190), R-306465 (JNJ-16241199; NSC773264), adavosertib (NSC754352), TP-3654 (NSC805149), carboplatin (NSC241240), KSQ-4279 (NSC840948), and staurosporine (NSC755774) were obtained from the National Cancer Institute (NCI) Developmental Therapeutics Program Chemical Repository (34). The FDA-approved anticancer drug set is available from the NCI Developmental Therapeutics Program. […] The stock solutions were prepared in dimethyl sulfoxide (DMSO, Sigma-Aldrich, St. Louis, MO, cat. D2650) at 800-fold the tested concentration and stored at -70 degrees C prior to their use. All drugs and investigational agents were tested over a range starting from a high concentration at or near the clinical Cmax and decreasing in half-log increments. If the clinical Cmax for an agent had not been determined, the highest concentration tested was 10 microM.
2.3 Cell Culture. All cells were maintained in an incubator at 37 degrees C and 5% CO2 with 95% humidity. The PDC lines were cultured according to standard operating procedures established by the NCI PDMR. All PDCs were thawed and cultured in Matrigel-coated flasks prepared with a working solution of 1X Ham's F-12 nutrient mix, without supplementation (Invitrogen, cat. 11765054), 100 U/mL penicillin-streptomycin (Invitrogen, cat. 15140122), and 2.5% Matrigel (Corning Inc., cat. 354248) for the first three passages. The 857933-349-R-J2-PDC line was cultured in 6C/Colon 1B media, which includes advanced DMEM/F-12 (Thermo Fisher Scientific, cat. 12634028), 10 mM HEPES (Thermo Fisher Scientific, cat. 15630080), 1X GlutaMAX supplement (Thermo Fisher Scientific, cat. 35050061), 0.1 mg/mL primocin (InvivoGen, cat. ant-pm-2), 10% defined fetal bovine serum, heat inactivated (HyClone Laboratories Inc., cat. SH30070.03HI), 50% L-WRN conditioned media (ATCC, cat. CRL-3276), 1.25 mM N-Acetyl-L-cysteine (Sigma-Aldrich, cat. A9165), 10 mM nicotinamide (Sigma-Aldrich, cat. N0636), 1X B-27 supplement (Thermo Fisher Scientific, cat. 17504044), 1X N-2 supplement (Thermo Fisher Scientific, cat. 17502048), 10 microM Y-27632 dihydrochloride (Tocris Bioscience, cat. 1254), and 50 ng/mL human EGF recombinant protein (Thermo Fisher Scientific, cat. PHG0311). The 485176-168-R4-J1-PDC line was cultured in Panc media, which includes all 6C/Colon 1B media components plus 100 ng/mL human FGF-10 (Thermo Fisher Scientific, cat. 100-26), 500 nM SB-431542 (Selleckchem, cat. S1067), and gastrin (Tocris, cat. 3006).
[…]

[1] = second compound 0.0316 µM, first compound 0.0316 µM
[2] = second compound 0.0316 µM, first compound 0.1 µM
[3] = second compound 0.0316 µM, first compound 0.316 µM
[4] = second compound 0.0316 µM, first compound 1 µM
[5] = second compound 0.0316 µM, first compound 3.16 µM
[6] = second compound 0.0316 µM, first compound 10 µM
[7] = second compound 0.1 µM, first compound 0.0316 µM
[8] = second compound 0.1 µM, first compound 0.1 µM
[9] = second compound 0.1 µM, first compound 0.316 µM
[10] = second compound 0.1 µM, first compound 1 µM
[11] = second compound 0.1 µM, first compound 3.16 µM
[12] = second compound 0.1 µM, first compound 10 µM
[13] = second compound 0.316 µM, first compound 0.0316 µM
[14] = second compound 0.316 µM, first compound 0.1 µM
[15] = second compound 0.316 µM, first compound 0.316 µM
[16] = second compound 0.316 µM, first compound 1 µM
[17] = second compound 0.316 µM, first compound 3.16 µM
[18] = second compound 0.316 µM, first compound 10 µM
[19] = second compound 1 µM, first compound 0.0316 µM
[20] = second compound 1 µM, first compound 0.1 µM
[21] = second compound 1 µM, first compound 0.316 µM
[22] = second compound 1 µM, first compound 1 µM
[23] = second compound 1 µM, first compound 3.16 µM
[24] = second compound 1 µM, first compound 10 µM
[25] = second compound 3.16 µM, first compound 0.0316 µM
[26] = second compound 3.16 µM, first compound 0.1 µM
[27] = second compound 3.16 µM, first compound 0.316 µM
[28] = second compound 3.16 µM, first compound 1 µM
[29] = second compound 3.16 µM, first compound 3.16 µM
[30] = second compound 3.16 µM, first compound 10 µM
[31] = second compound 10 µM, first compound 0.0316 µM
[32] = second compound 10 µM, first compound 0.1 µM
[33] = second compound 10 µM, first compound 0.316 µM
[34] = second compound 10 µM, first compound 1 µM
[35] = second compound 10 µM, first compound 3.16 µM
[36] = second compound 10 µM, first compound 10 µM
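Further: viability read after seven days of drug exposure.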
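Wherever viability, T/C is given: luminescence signal used as a proxy for viable cells; 100% = DMSO vehicle control wells.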

COc1cccc2c1C(=O)c1c(O)c3c(c(O)c1C2=O)CC(O)(C(=O)CO)CC3OC1CC(N)C(O)C(C)O1 (centres undefined) + Cc1[nH]c2ccc(F)cc2c1-c1nc2c3cccnc3c3ncccc3c2[nH]1
IC50 (second compound 0.0316 µM): < 31.6 nM
IC50 (second compound 0.1 µM): < 31.6 nM
IC50 (second compound 0.316 µM): < 31.6 nM
IC50 (second compound 1 µM): < 31.6 nM
IC50 (second compound 3.16 µM): < 31.6 nM
IC50 (second compound 10 µM): < 31.6 nM
viability, T/C [1]: 37.8%
viability, T/C [2]: 16.7%
viability, T/C [3]: 15.8%
viability, T/C [4]: 11.2%
viability, T/C [5]: 0.53%
viability, T/C [6]: 0.35%
viability, T/C [7]: 39.7%
viability, T/C [8]: 18%
viability, T/C [9]: 8.25%
viability, T/C [10]: 9.06%
viability, T/C [11]: 0.53%
viability, T/C [12]: 0.34%
viability, T/C [13]: 37%
viability, T/C [14]: 18.9%
viability, T/C [15]: 14%
viability, T/C [16]: 9.89%
viability, T/C [17]: 0.62%
viability, T/C [18]: 0.43%
viability, T/C [19]: 29.9%
viability, T/C [20]: 18.7%
viability, T/C [21]: 12.2%
viability, T/C [22]: 8.92%
viability, T/C [23]: 0.78%
viability, T/C [24]: 0.5%
viability, T/C [25]: 18.3%
viability, T/C [26]: 18.4%
viability, T/C [27]: 16.1%
viability, T/C [28]: 11.4%
viability, T/C [29]: 0.97%
viability, T/C [30]: 0.58%
viability, T/C [31]: 30.1%
viability, T/C [32]: 18.8%
viability, T/C [33]: 16.1%
viability, T/C [34]: 11.9%
viability, T/C [35]: 0.69%
viability, T/C [36]: 0.49%

COc1ncnc(C2CC2)c1-c1ncc2cnn(Cc3ccc(-c4nc(C(F)(F)F)cn4C(C)C)cc3)c2n1 + Cc1[nH]c2ccc(F)cc2c1-c1nc2c3cccnc3c3ncccc3c2[nH]1
IC50 (second compound 0.0316 µM): > 10000 nM
IC50 (second compound 0.1 µM): > 10000 nM
IC50 (second compound 0.316 µM): > 10000 nM
IC50 (second compound 1 µM): > 10000 nM
IC50 (second compound 3.16 µM): < 31.6 nM
IC50 (second compound 10 µM): < 31.6 nM
viability, T/C [1]: 86.6%
viability, T/C [2]: 67.6%
viability, T/C [3]: 77.3%
viability, T/C [4]: 57.8%
viability, T/C [5]: 66.7%
viability, T/C [6]: 75.3%
viability, T/C [7]: 74.8%
viability, T/C [8]: 57.1%
viability, T/C [9]: 87%
viability, T/C [10]: 54.6%
viability, T/C [11]: 79.9%
viability, T/C [12]: 67.6%
viability, T/C [13]: 63.8%
viability, T/C [14]: 60.6%
viability, T/C [15]: 62.8%
viability, T/C [16]: 64.5%
viability, T/C [17]: 77.3%
viability, T/C [18]: 66.6%
viability, T/C [19]: 57.8%
viability, T/C [20]: 59%
viability, T/C [21]: 60.1%
viability, T/C [22]: 50.2%
viability, T/C [23]: 50.1%
viability, T/C [24]: 57.4%
viability, T/C [25]: 20.8%
viability, T/C [26]: 27.6%
viability, T/C [27]: 22.6%
viability, T/C [28]: 28.4%
viability, T/C [29]: 27.5%
viability, T/C [30]: 26.1%
viability, T/C [31]: 28.9%
viability, T/C [32]: 29.5%
viability, T/C [33]: 26.4%
viability, T/C [34]: 27.1%
viability, T/C [35]: 32.1%
viability, T/C [36]: 32.6%
